# From patent US20040234981A1, “Method of determining dna base sequence” (priority 2001, published 2004)
# Several values for one entry are separate records, joined by “and”; a condition that tells them apart may be missing. Equal entries are not always repeated.
# Legend:
# 3′-dATP [1] = experiment: Test (1): 3′-dATP added during in vitro transcription, amount of RNA synthesized (SYBER Green II gel image); type: biochemical; conditions: 3′-dATP concentration 0.024 mM, wild form of T7 RNA polymerase taken as 1, inverse of RNA synthesis level
# Description: (§1) The ability to incorporate 3′-dATP of the Δ type enzyme of purified T7 RNA polymerase was compared to that of the wild type and F644Y mutation.
# In this method, 3′-dATP was added during an in vitro transcription reaction and the synthesis level was determined by comparison with synthesis impairment. This will be described in greater detail. The template employed was pBluescriptII (Stratagene) pretreated with the restriction enzyme ScaI (made by Nippon Gene). The reaction conditions were: 40 mM Tris-HCl, pH 8.0, 25 mM NaCl, 8 mM MgCl2, 2 mM spermidine-(HCl)3, and 5 mM DTT. The concentration of nucleotides ATP, CTP, GTP, and UTP was 0.5 mM. Of these, ATP was replaced with 3′-dATP (Sigma) in ranges of 0.006 mM, 0.008 mM, 0.012 mM, and 0.024 mM. The above purified enzymes were added to 20 μL of this solution and the reaction was conducted for 30 to 60 min at 37° C. At the conclusion of the reaction, 4 μL of 5× gel loading buffer was added (15% Ficoll, 0.1% BPB, 0.1% XC, 0.5% SDS, and 0.1 M EDTA). The entire solution was then subjected to electrophoresis in a 1% modified agarose gel containing formaldehyde. At the conclusion of electrophoresis, 10,000-fold dilution was conducted with SYBER Green II (made by Molecular Probe Co.) and dying was conducted for 20 to 40 min according to a protocol of addition to the product. A Fluoro S Multiimager (BiORad Co.) was then employed to irradiate ultraviolet radiation and pick up the fluorescent image. Multianalyst, an attached image analyzing software package, was used to determine the amount of RNA that had been synthesized from the image picked up. The various values of the results were compared. An increase in ability to incorporate 3′-dATP should result in a drop in the synthesis level. Accordingly, a comparison was made with a control, and the inverse thereof was employed as indicator of how readily 3′-dATP was incorporated.
# [2] = system: fluorescent-labeled 3′-deoxynucleotide; experiment: Ability to incorporate fluorescent-labeled 3′-deoxynucleotide, fluorescent signal intensity on ABI 377 XL Sequencer; type: biochemical; conditions: for (1) Average signal intensity U: Bodipy(564/570)-3′dUTP; for (1) Average signal intensity U / (1) Average signal intensity C / (1) Average signal intensity G / (1) Average signal intensity A: 100 units of enzyme (50 units for F644Y/Δ1); for (1) Average signal intensity C: Bodipy(581/591)-3′dCTP; for (1) Average signal intensity G: Bodipy(FL)-3′dGTP; for (1) Average signal intensity A: Bodipy(R6G)-3′dATP; for (2) Signal intensity per unit of enzyme G: conversion of (1) per unit of enzyme; for Signal intensity per unit of enzyme A, value in parentheses relative to wild enzyme / Signal intensity per unit of enzyme C, value in parentheses relative to wild enzyme / Signal intensity per unit of enzyme G, value in parentheses relative to wild enzyme / Signal intensity per unit of enzyme U, value in parentheses relative to wild enzyme: relative to a value of 1 for the signal intensity of wild enzyme
# Description: A comparison was conducted of the ability to incorporate florescent-labeled 3′-deoxynucleotide of Δ-type enzyme of purified T7 RNA polymerase.
# This method was conducted in accordance with the method of Sasaki et al. (Sasaki, N., et al. Gene, 222(1): 17-24 (1998)). In greater detail, pBluescriptII DNA was employed as template. A solution obtained by mixing Bodipy(R6G)-3′dATP, Bodipy(FL)-3′dGTP, Bodipy(581/591)-3′dCTP, Bodipy(564/570)-3′dUTP, ATP, GTP, CTP, and UTP in prescribed proportions was employed to conduct reactions differing only with regard to the T7 RNA polymerase employed. The enzymes employed were 100 units of T7 RNA polymerase (wild type) and T7 RNA polymerase F644Y; and 50 units of T7 RNA polymerase F644Y/Δ1. The reaction product was subjected to electrophoresis with an ABI 377 XL Sequencer. The average value of the fluorescent signal intensity was compared for each nucleotide.
# Column (2) is a conversion of the value of (1) per unit of enzyme. Numbers shown in parentheses denote values relative to a value of “1” for the signal intensity of wild enzyme. […] Since the ABI 377 XL Sequencer is not a device for quantitative analysis, and operations is conducted on an extremely small amount of samples, large errors are to be expected.
# 3′-deoxy nucleotide = conditions: Izawa, M., et al. J. Biol. Chem., 273 (23): 14242 (1998); cited from earlier work
# 3′-dATP [3] = experiment: Test (2): 3′-dATP added during in vitro transcription with Biotin-labeled CTP, chemoluminescent signal detection; type: biochemical; conditions: 3′-dATP concentration 0.00125 mM, wild form taken as 1, average of three runs
# Description: as §1
# In this method, 3′-dATP was added during an in vitro transcription reaction and the synthesis level was determined by comparison with synthesis impairment. This will be described in greater detail. The template employed was pBluescriptII (Stratagene) pretreated with the restriction enzyme ScaI (made by Nippon Gene). The reaction conditions were: 40 mM Tris-HCl, pH 8.0, 25 mM NaCl, 8 mM MgCl2, 2 mM spermidine-(HCl)3, and 5 mM DTT. The concentration of ribonucleotides rATP, rCTP, rGTP, and rUTP was 0.5 mM. A 0.1 mM quantity of Biotin-labeled CTP was added and 3′-dATP was added in ranges of 0.00125 mM, 0.0025 mM, and 0.005 mM. A 25 U quantity of enzymes purified as set forth above were added to 10 μL of this solution and the reaction was conducted for 60 min at 37° C. At the conclusion of the reaction, 1 μL of 10× gel loading buffer (1 mM EDTA, 1% SDS, 50% glycerol, and 0.05% BPB) was added. The entire solution was then subjected to electrophoresis in a 1% modified formamide gel. At the conclusion of electrophoresis, northern hybridization was conducted, the synthesized product was transcribed onto a nylon membrane, and signal detection was conducted based on a chemoluminescent substrate according to a protocol of anti-SA-AP antibody (made by Oriental Yeast Co., diluted 20,000-fold) and CDP-Star™ (made by Roche Co.). A Fluoro S Multiimager (BioRad Co.) and Multianalyst, an attached image analyzing software package, were then employed to determine the level of the signal detected.
Molecule,Relative ability to incorporate 3′-dATP (3′-dATP [1]),(1) Average signal intensity U [2],(1) Average signal intensity C [2],(1) Average signal intensity G [2],(1) Average signal intensity A [2],(2) Signal intensity per unit of enzyme G [2],"Signal intensity per unit of enzyme A, value in parentheses relative to wild enzyme [2]","Signal intensity per unit of enzyme C, value in parentheses relative to wild enzyme [2]","Signal intensity per unit of enzyme G, value in parentheses relative to wild enzyme [2]","Signal intensity per unit of enzyme U, value in parentheses relative to wild enzyme [2]",Increase in ability to incorporate 3′-deoxy nucleotide relative to the corresponding wild form (3′-deoxy nucleotide),Relative ability to incorporate 3′-dATP (3′-dATP [3]),Relative ability to incorporate 3′-dATP (3′-dATP [3]; listed as F644Y),Relative ability to incorporate 3′-dATP (3′-dATP [3]; listed as F644Y/Δ1),Relative ability to incorporate 3′-dATP (3′-dATP [3]; listed as T7 RNA polymerase F644Y/Δ 1)
"T7 RNA polymerase F644Y: mutant T7 RNA polymerase, tyrosine substituted for phenylalanine at residue 644; plasmid pT7RF644Y",1.45,134,136,199,74,2.0,(1.1),(0.9),(0.9),(1.1),about fivefold,1.20 ± 0.3,1.20±0.3 and 1.20,,
"T7 RNA polymerase F644Y/Δ1: T7 RNA polymerase F644Y deficient in amino acids 172 and 173; plasmid pT7RF644Y/Δ1, FERM BP-7619 (protein, UniProt P00573 1-883, looked up, variant F644Y del172-173) T7 RNA polymerase: MNTINIAKNDFSDIELAAIPFNTLADHYGERLAREQLALEHESYEMGEARFRKMFERQLKAGEVADNAAAKPLITTLLPKMIARINDWFEEVKAKRGKRPTAFQFLQEIKPEAVAYITIKTTLACLTSADNTTVQAVASAIGRAIEDEARFGRIRDLEAKHFKKNVEEQLNVGHVYKKAFMQVVEADMLSKGLLGGEAWSSWHKEDSIHVGVRCIEMLIESTGMVSLHRQNAGVVGQDSETIELAPEYAEAIATRAGALAGISPMFQPCVVPPKPWTGITGGGYWANGRRPLALVRTHSKKALMRYEDVYMPEVYKAINIAQNTAWKINKKVLAVANVITKWKHCPVEDIPAIEREELPMKPEDIDMNPEALTAWKRAAAAVYRKDKARKSRRISLEFMLEQANKFANHKAIWFPYNMDWRGRVYAVSMFNPQGNDMTKGLLTLAKGKPIGKEGYYWLKIHGANCAGVDKVPFPERIKFIEENHENIMACAKSPLENTWWAEQDSPFCFLAFCFEYAGVQHHGLSYNCSLPLAFDGSCSGIQHFSAMLRDEVGGRAVNLLPSETVQDIYGIVAKKVNEILQADAINGTDNEVVTVTDENTGEISEKVKLGTKALAGQWLAYGVTRSVTKRSVMTLAYGSKEYGFRQQVLEDTIQPAIDSGKGLMFTQPNQAAGYMAKLIWESVSVTVVAAVEAMNWLKSAAKLLAAEVKDKKTGEILRKRCAVHWVTPDGFPVWQEYKKPIQTRLNLMFLGQFRLQPTINTNKDSEIDAHKQESGIAPNFVHSQDGSHLRKTVVWAHEKYGIESFALIHDSFGTIPADAANLFKAVRETMVDTYESCDVLADFYDQFADQLHESQLDKMPALPAKGNLNLRDILESDFAFA",15.5,332,317,446,156,8.92,(2.3),(2.2),(4.0),(2.8),,,,2.30±0.3 and 2.30,2.30 ± 0.3
